Test [1] concerns subgenomic Con1 (GT1b) replicon in Huh-7 cells. The format is cell-based, hepatitis C virus. The settings on record: for passages until development of HCV resistance, DAA alone ("instead of" comparison): compared with combination. As for the experimental part:
Huh-7 cell expressing subgenomic Con1 (GT1b) replicon were seeded in a 10 cm dish at a density of 3 × 10^5 cells per culture flask in complete DMEM (with G418) with STG-175 or selected drugs. Cells were grown until they reached 90% confluence, trypsinized and re-seeded at the same cell concentration in a new 10-cm dish with the same drug concentration. Cells were passaged 22 times in the presence of drugs. At each passage, sample of cells were collected, RNA extracted according to the manufacturer's instructions and analyzed by RT-PCR for HCV RNA levels.
(§1) Fig 3 Replicon clearance, replication rebound and resistance analyses. […] Then drugs were removed to allow viral replication rebound to occur. At each passage, samples of cells were collected, RNA extracted and analyzed by RT-PCR for HCV RNA levels. B. Emergence of resistance: Con1 replicon Huh-7 cells were passaged 22 times in the absence or presence of STG-175 or selected DAAs. At each passage, sample of cells were collected, RNA extracted and analyzed by RT-PCR for HCV RNA levels. C. […] Data are expressed as number of HCV RNA copies per cell. […] Data are expressed as mean of relative light units and calculated EC50s are presented. […] E. Degree of resistance of D320E and Y321N Con1 variants: Left panel. Wild-type (WT), D320E and D320/Y321N NS5A Con1 RNA were electroporated into Huh7.5.1 cells and replication monitored over 8 days by quantifying the levels of intracellular HCV RNA. Right panel. Same as just above except that increasing concentrations of STG-175 were added at the time of the electroporation. […] STG-175 is taken as the substance from the printed x-axis title 'STG-175 in Log nM'.
We then examined the development of resistance to STG-175. GT1b Con1 sub-genomic replicon cells were grown in the presence of STG-175 (0.25 and 1 μM), telaprevir (2.5 and 10 μM), boceprevir (2.5 and 10 μM), daclatasvir 100 pM and 1 nM) or a combination of STG-175 (0.25 μM) with either telaprevir (2.5 μM), boceprevir (2.5 μM) or daclatasvir (100 pM) for 22 successive passages. At each passage, fresh drug was added and a sample of cells was taken to quantify HCV RNA levels by RT-qPCR.

The test system of test [2] is wild-type Con1 GT1b replicon. As to the kind of experiment: Electroporated Con1 RNA replication in Huh7.5.1 cells (RT-qPCR), wild-type. Type of test: cell-based. The settings on record: Hepatitis C virus.
Source text: (§2) The GT1b subgenomic firefly luciferase reporter replicon pFK-I389/NS3–3 was provided by R. Bartenschlager. The GT1B subgenomic NS3, NS5A and NS5B mutants were created via homologous recombination using the In-Fusion HD Cloning kit (Clontech) as we described previously. […] The in vitro transcription of wild-type and mutant Con1 RNA was accomplished using the T7 MEGAscript kit (Ambion) by following the manufacturer’s instructions. In vitro-transcribed RNAs were introduced into Huh7.5.1 cells by electroporation. Trypsinized cells were washed twice and resuspended in phosphate-buffered saline (PBS) (calcium-free and magnesium-free) at 1x 10^7 cells per ml. Ten micrograms of RNA for each mutant was mixed with 0.4 mL of cells in a 4-mm cuvette, and a Bio-Rad Gene Pulser system was used to deliver a single pulse at 0.27 kV, 100 ohms, and 960 μF. Cells were then plated in 12-well dishes. RNA transfection efficiency and HCV subgenomic replication were assessed by reverse transcription-quantitative PCR (RT-qPCR) and presented as genome equivalents (GE) per microgram of total RNA as described previously. We measured by RT-qPCR the replication of wild-type, STG-175-, NS5Ai-, NS3i- and NS5Bi-resistant mutants in the presence of increasing concentrations of SGT-175, daclatasvir, telaprevir, boceprevir and sofosbuvir over a period of 8 days.
as §1
To determine whether the D320E and Y321N substitutions truly render HCV resistant to STG-175, they were introduced into wild-type Con1 replicon as we described previously. Introduction of the substitutions was verified by sequencing. In vitro-transcribed wild-type, D320E and D320E/Y321N HCV RNAs were then electroporated into Huh7.5.1 cells and viral replication assessed by RT-qPCR and presented as GE per microgram of total RNA as we described previously. […] We then analyzed the replication of wild-type, D320E and D320E/Y321N in the presence of increasing concentrations of SGT-175 over a period of 8 days.
Fig 5 Cross-resistance analyses.

For test [3], the system named is D320E NS5A Con1 GT1b replicon. In words: microbe, parasite or virus in culture. The settings on record: Hepatitis C virus, GT1B. The format is cell-based, hepatitis C virus.
Source text: as §2
(§3) D320E and D320E/Y321N NS5A substitutions were introduced into wild-type Con1 GT1 replicon as we described previously. Con1-NS5A-D320E, and Con1-NS5A-D320E/Y321N were generated using the following forward and reverse phosphorylated (p) primer sets, respectively: (p)[…] and (p)[…], and (p)[…] and (p)[…]. PCR products were circularized with Quick T4 DNA ligase (NEB) for 5 min and transformed into NEB 10-beta competent cells. The NS5A gene was sequenced to confirm the introduced substitutions.
as §1
(§4) To determine whether the D320E and Y321N substitutions truly render HCV resistant to STG-175, they were introduced into wild-type Con1 replicon as we described previously. Introduction of the substitutions was verified by sequencing.

Test [4] has as its system D320E/Y321N NS5A Con1 GT1b replicon. As to the kind of experiment: microbe, parasite or virus in culture. The format is cell-based, hepatitis C virus. The settings on record: Hepatitis C virus, GT1B.
Source text: as §2, §3, §1, §4

[5] abbreviates: Huh-7.5.1, 192 h, read-out: EC50 GT1b WT.
Setting [6] is: Huh-7.5.1, 192 h, read-out: EC50 D320E NS5A.
The mark [7] stands for this setting: Huh-7.5.1, 192 h, read-out: EC50 D320E/Y321N NS5A.

The structures appear in SMILES notation. Like-named read-outs stand apart in the source and are kept apart here.

With `COC(=O)N[C@H](C(=O)N1CCC[C@H]1c1nc(-c2ccc(-c3ccc(-c4c[nH]c([C@@H]5CCCN5C(=O)[C@@H](NC(=O)OC)C(C)C)n4)cc3)cc2)c[nH]1)C(C)C` [daclatasvir], the figures for the “passage at which resistance began” value in test [1] (100 pM) and in test [1] (1 nM) were 4 passage and 5 passage, respectively. Besides, in test [1], the “passages until development of HCV resistance, DAA alone ("instead of" comparison)” value is recorded as 4 passages. Besides, the EC50 turned out to be 0.043 nM in test [2] (Huh-7.5.1, read-out: EC50 wild-type replicon); 0.032 nM in test [3] (Huh-7.5.1, read-out: EC50 D320E replicon); 0.039 nM in test [4] (Huh-7.5.1, read-out: EC50 D320E/Y321N replicon).

Regarding `CC(C)OC(=O)[C@H](C)N[P@](=O)(OC[C@H]1O[C@@H](n2ccc(=O)[nH]c2=O)[C@](C)(F)[C@@H]1O)Oc1ccccc1` [sofosbuvir, reference compound], the EC50 in test [2] (setting [5]) worked out at 177 nM; in test [3] (setting [6]) it was 120 nM; in test [4] (setting [7]), 111 nM.

In the case of `CCC[C@H](NC(=O)[C@@H]1[C@H]2CCC[C@H]2CN1C(=O)[C@@H](NC(=O)[C@@H](NC(=O)c1cnccn1)C1CCCCC1)C(C)(C)C)C(=O)C(=O)NC1CC1` [telaprevir], the “passage at which resistance began” value in test [1] (2.5 μM) is 7 passage; in test [1] (10 μM) it was 10 passage. The “passages until development of HCV resistance, DAA alone ("instead of" comparison)” value in test [1] is 6 passages. For the same molecule, the EC50 in test [2] (setting [5]) worked out at 290 nM; in test [3] (setting [6]), 230 nM; in test [4] (setting [7]), 314 nM.

The values are drawn from article PMC4841536, “Characterization of the Anti-HCV Activities of the New Cyclophilin Inhibitor STG-175” (PLoS ONE, 2016).
